Laboratory results as given in patent publication US12053465B2, “KCC2 expression enhancing compounds and uses thereof” (Whitehead Institute for Biomedical Research, priority 2017, dated 2024).
“Also recorded” adds a separate entry of the source.

Key:
Type in all cases: cell-based
human RTT neurons = test: Membrane capacitance (Cm) of cultured human RTT neurons; details: for increase of neuronal Cm: RTT neurons transfected with KCC2 shRNA; for membrane capacitance (Cm): cultured human RTT neurons, vs DMSO or MeBIO control
Source text: Moreover, a reduction in the number or the strength of excitatory glutamatergic synapses in RTT neurons has been observed in postmortem RTT patient brain samples (30), mouse models of RTT (53), and human stem cell-derived RTT neurons (54). Electrophysiology recording was utilized to assess whether KEECs could rescue the deficits in EGABA and excitatory synaptic transmission of RTT neurons. […] We further investigated whether the beneficial effect of KEECs is a direct result of the increases in neuronal KCC2 gene expression. […] Deficits in a number of morphological measurements, including nuclei size and neurite complexity and branching, are hallmarks of RTT neurons (54-56). […] To validate the morphological measurements, electrophysiological measurements of the neuronal membrane capacitance (Cm), an indicator of neuronal cell size (57) that is reduced in RTT neurons, were conducted.
Functionally mature human neuron cultures were obtained by seeding human WT or isogenic RTT NPCs on a layer of primary mouse astrocyte culture as previously described (57). In the cultured WT human neurons, KCC2 expression reaches mature level between 2-3 months (7). We therefore treated the WT or RTT human neurons 8-12 weeks in culture, with compounds for a duration of two weeks before conducting whole-cell patch-clamp recording. The extracellular bath solution, that perfused the recording chamber, consists of (in mM): 120 NaCl, 30 glucose, 25 HEPES, 5 KCl, 2 CaCl2, 1 MgCl2. The pH was adjusted to 7.3 with NaOH. The high-chloride internal pipette solution consists of (in mM): 147 KCl, 5 Na-phosphocreatine, 2 EGTA, 10 HEPES, 4 MgATP, and 0.5 Na2GTP; the pH 7.3 was adjusted with KOH. To record mini EPSC, the membrane potential was held at −70 mV, and 0.5 μM of TTX and 50 μM Picrotoxin were applied with bath solution to block action potential and GABAergic synaptic transmission.

KCC2 expression [1] = test: Western blot of KCC2 in cultured WT human neurons; details: cultured WT human neurons (WIBR1); Western blot
KCC2 expression [2] = test: Western blot of KCC2 in cultured human RTT neurons; details: Western blot; for concentration at which treatment significantly increases KCC2 expression: cultured ESC-derived human RTT neurons; for KCC2 expression: cultured human RTT neurons
Method in brief: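 Cultured neurons lysed in RIPA buffer (pH 7.6) with sonication; immunoblotted on PVDF with KCC2 antibody (1:2000) overnight at 4° C., HRP secondary.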

Row | Structure (SMILES) | increase of neuronal Cm (human RTT neurons) | membrane capacitance (Cm) (human RTT neurons) | KCC2 expression (KCC2 expression [1]) | concentration at which treatment significantly increases KCC2 expression (KCC2 expression [2]) | KCC2 expression (KCC2 expression [2]) | KCC2 expression (KCC2 expression [2]; listed as KIN 001-043)
1 | O=C1Nc2cc(Br)ccc2/C1=C1/Nc2ccccc2/C1=N\O [BIO, (2Z,3E)-6′-bromo-3-(hydroxyimino)-[2,3′-biindolinylidene]-2′-one] | abolished the capability | significantly higher Cm, at levels comparable to isogenic WT human neurons | significantly increased KCC2 expression | 0.3 µM | increased KCC2 expression levels significantly | increase KCC2 expression
2 | O=C(c1ccc(/C=C/c2n[nH]c3ccccc23)cc1)N1CCNCC1 [KW-2449, (E)-(4-(2-(1H-indazol-3-yl)vinyl)phenyl)(piperazin-1-yl)methanone] | abolished the capability | significantly higher Cm, at levels comparable to isogenic WT human neurons | significant increase in KCC2 expression in a dose-dependent manner | 0.1 µM | increase KCC2 expression; also recorded: significant enhancement of KCC2 expression | 
